Source: patent US12122761B2, “2-azaspiro[3.4]octane derivatives as M4 agonists” (NOVARTIS AG, priority 2019, dated 2024)

Experiments:
[1] = molecular target: T1, human cloned CHRM3 receptor (M3_CHO cells) (Homo sapiens, UniProt P20309); test: CHRM3 Ca++ Flux Assay (agonist mode, FDSS 7000EX); type: cell-based; settings: for EC50: agonist mode, geometric mean if tested more than once, read-out: M3 FDSS EC50
T1 construct: expressed in transfected cells; host or cells: CHO-K1
Method: (§1) The above examples were characterized by measuring the intracellular mobilization of Ca++ ions caused by signaling events mediated by the receptor. The Intra-cellular Calcium flux levels were captured by the highly sensitive Ca++ indicator, Calcium Assay Kit (BD Biosciences, Catalog Number 640178). The fluorescent activity from all receptors were monitored by the fluorescent imager, FDSS 7000EX (Hamamatsu) over a span of 3 minutes.
(§2) CHO-K1 cells stably expressing the human cloned CHRM3 receptor (M3_CHO cells) were grown and maintained in a monolayer culture with F12/HAM (Life Technologies) supplemented with 10% Fetal Bovine Serum, 1× Pen-Strep, and 0.4 mg/mL Geneticin in a humidified atmosphere (5% CO2) at 37° C. The cultures were grown to 80-9 0% confluency in T150 flasks (Corning) and washed with 1×DPBS and lifted with 0.05% Trypsin (Life Technologies). The cells were then spun (1K rpm, 3 minutes) and frozen using Recovery Cell Culture Freezing Media (Gibco Technologies). Cells were stored in liquid nitrogen and thawed a day before the assay. A similar procedure was used for cells stably expressing the human cloned CHRM5 receptor (M5_CHO).
(§3) Prior to the day of the assay, stable M3_CHO or M5_CHO cells were thawed and plated on Greiner 384 well black TC treated plates at 12K cells/well in F12/DMEM supplemented with 10% FBS (Hyclone) and kept overnight in a humidified atmosphere (5% CO2) at 37° C. The next day, cells were loaded with Ca^++ dye (BD Biosciences) using Loading Buffer (HBSS +Ca/+Mg, 20 mM HEPES, 2.5 mM Probenecid) and placed back in cell incubator for a minimum of 1 hour. After incubation, the dye was replaced with Assay Buffer (HBSS −Ca/−Mg, 20 mM HEPES, 2.5 mM Probenecid) and kept at room temperature in the dark before running on cell imager. The FDSS 7000EX (Hamamatsu) was used to acquire Ca^++ traces from cells treated with 11 point dose response of compounds in triplicate in order to generate dose response curves in agonist mode. All compounds were serially diluted in DMSO then prepared in Assay Buffer for Ca^++ flux studies. The dose response curves were generated from the average of triplicate wells obtained from each data point and used a non-linear regression of four parameter dose response algorithm. The Percent Activity (PA) was measured to EC100 of Carbachol.

[2] = molecular target: T2, human cloned CHRM5 receptor (M5_CHO) (Homo sapiens, UniProt P08912); test: CHRM5 Ca++ Flux Assay (agonist mode, FDSS 7000EX); type: cell-based; settings: Percent Activity measured to EC100 of Carbachol; read-out: M5 FDSS PA
T2 construct: expressed in transfected cells; host or cells: CHO (M5_CHO)
T2 sequence (P08912 1-532): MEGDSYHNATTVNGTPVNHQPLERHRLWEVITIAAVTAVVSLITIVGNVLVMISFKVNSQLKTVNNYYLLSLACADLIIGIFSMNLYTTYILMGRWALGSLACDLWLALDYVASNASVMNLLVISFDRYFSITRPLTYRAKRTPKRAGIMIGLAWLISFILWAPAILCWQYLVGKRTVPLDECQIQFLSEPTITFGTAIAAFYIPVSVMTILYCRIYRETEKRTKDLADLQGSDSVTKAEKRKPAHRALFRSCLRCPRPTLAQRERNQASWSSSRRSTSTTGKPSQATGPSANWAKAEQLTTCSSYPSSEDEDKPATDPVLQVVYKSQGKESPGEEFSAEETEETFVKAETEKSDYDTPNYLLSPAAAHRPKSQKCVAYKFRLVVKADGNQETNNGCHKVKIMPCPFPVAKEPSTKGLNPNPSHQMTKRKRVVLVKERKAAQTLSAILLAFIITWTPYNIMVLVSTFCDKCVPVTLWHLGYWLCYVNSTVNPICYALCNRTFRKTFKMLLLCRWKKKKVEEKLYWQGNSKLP
Method: as §1, §2, §3

[3] = tested on: hyperactivity in mice induced by the stimulant d-amphetamine; settings: general statement on clinically efficacious muscarinic antipsychotics; xanomeline used as positive control (1.0 mg/kg, SC); cited from earlier work
[4] = Percent Activity measured to EC100 of Carbachol

T1 sequence (P20309 whole entry): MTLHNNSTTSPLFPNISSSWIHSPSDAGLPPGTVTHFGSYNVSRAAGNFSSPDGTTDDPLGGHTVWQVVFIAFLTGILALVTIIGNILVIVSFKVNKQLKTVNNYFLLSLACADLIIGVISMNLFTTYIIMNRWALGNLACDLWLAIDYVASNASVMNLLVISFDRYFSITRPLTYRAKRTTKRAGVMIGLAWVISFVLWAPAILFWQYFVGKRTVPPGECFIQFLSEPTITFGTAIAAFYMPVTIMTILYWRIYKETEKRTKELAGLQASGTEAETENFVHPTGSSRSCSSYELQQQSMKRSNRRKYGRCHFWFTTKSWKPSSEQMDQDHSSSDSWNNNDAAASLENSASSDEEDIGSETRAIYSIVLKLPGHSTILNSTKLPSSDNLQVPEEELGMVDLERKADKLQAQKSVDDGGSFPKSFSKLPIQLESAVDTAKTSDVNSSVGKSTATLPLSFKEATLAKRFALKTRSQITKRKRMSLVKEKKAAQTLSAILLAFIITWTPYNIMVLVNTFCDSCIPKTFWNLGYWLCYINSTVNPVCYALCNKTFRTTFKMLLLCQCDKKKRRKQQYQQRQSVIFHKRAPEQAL

| Compound | M3 FDSS PA [1, 4] [%] | EC50 [1] [µM] | Emax ([1]; Percent Activity measured to EC100 of Carbachol, read-out: M3 FDSS PA) [%] | Emax [2] [%] | activity in the amphetamine induced hyperlocomotion assay [3] |
| --- | --- | --- | --- | --- | --- |
| COc1ccccc1C1CCN([C@H]2CCC3(C2)CN(C(=O)C2COC2)C3)CC1 (single isomer, unassigned) [Example 8C, (S)-(6-(4-(2-methoxyphenyl)piperidin-1-yl)-2-azaspiro[3.4]octan-2-yl)(oxetan-3-yl)methanone or (R)-(6-(4-(2-methoxyphenyl)piperidin-1-yl)-2-azaspiro[3.4]octan-2-yl)(oxetan-3-yl)methanone] | 0 | > 25 |  |  |  |
| COc1ccccc1C1CCN([C@H]2CCC3(C2)CN(C(=O)C2COC2)C3)CC1 (single isomer, unassigned) [Example 8D, (S)-(6-(4-(2-methoxyphenyl)piperidin-1-yl)-2-azaspiro[3.4]octan-2-yl)(oxetan-3-yl)methanone or (R)-(6-(4-(2-methoxyphenyl)piperidin-1-yl)-2-azaspiro[3.4]octan-2-yl)(oxetan-3-yl)methanone] | 0 | > 25 |  |  |  |
| COc1cc(F)ccc1C1CCN([C@@H]2CCC3(C2)CN(C(=O)C2COC2)C3)CC1 [Example 6C, (R)-(6-(4-(4-fluoro-2-methoxyphenyl)piperidin-1-yl)-2-azaspiro[3.4]octan-2-yl)(oxetan-3-yl)methanone] |  |  | 0 | 0 |  |
| CCCCCCOc1nsnc1C1=CCCN(C)C1 [xanomeline] |  |  |  |  | active |
